Results reported in ChEMBL document CHEMBL1201862, “PubChem BioAssay data set” (2004).
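All cell lines were grown in 96-well plates and treated with compound for 48 hours. GI50: concentration for 50% inhibition of growth.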 The source made the active and inactive calls. Cut-off read from the data, not from the text of the source: active = GI50 up to about 1.1 µM and inactive = higher. *1 amine or outer side, *2 acyl side, *3 side chain or, on linkers, in order; H or OH if unused. Where a SMILES comes first, the peptide text is derived from it. Bridges are numbered along the chain shown (N, C = ends). Roman numbers before positions name the chains, in order. Peptide text beside a SMILES is read from it. [ ]: non-standard residue; d: D form. * marks the point of attachment. Actinocin(9to1) = Cc1c2oc3c(C)ccc(C(=O)[*:1])c3nc-2c(C(=O)[*:2])c(N)c1=O; NMeV = CN[CH](C(=O)O)C(C)C; Boc = CC(C)(C)OC(=O)*; Sar = CNCC(=O)O

Columns and labels:
Experiment in all cases: NCI anticancer screen, dose series, 48 h
Hs-578T = tested on: Hs-578T
HOP-18 = tested on: HOP-18
DMS-273 = tested on: DMS-273
LXFL 529 = tested on: LXFL 529
SNB-78 = tested on: SNB-78
KM-20L2 = tested on: KM-20L2
XF498 = tested on: XF498
DMS-114 = tested on: DMS-114
RXF 631 = tested on: RXF 631

**Q.** With `COc1cc(O)c2c(c1)C(O)C(O)CC1OC1C(=O)/C=C/CC(C)OC2=O` (stereo unspecified) as the compound, how does the GI50 (Hs-578T) read?
**A.** Its GI50 is 10 µM (inactive).

**Q.** `Cc1ccc(Cl)c2c(=O)cc(-c3ccccc3)[nH]c12` was tested. Which GI50 (HOP-18) did it give?
**A.** Its GI50 is 11.5 µM (inactive).

**Q.** What about the GI50 (DMS-273) of the same compound?
**A.** Its GI50 is 35.6 µM (inactive).

**Q.** And the GI50 (LXFL 529)?
**A.** The GI50 was 41.7 µM (inactive).

**Q.** With `COc1cc(CNc2nc3cc(C(F)(F)F)ccc3nc2C)cc(OC)c1OC` as the compound, how does the GI50 (Hs-578T) read?
**A.** Its GI50 is 13.5 µM (inactive).

**Q.** `CCCCN(CCCC)C(=O)C(=O)C(C)C(=O)CC` (stereo unspecified) was tested. Which GI50 (SNB-78) did it give?
**A.** Its GI50 is > 100 µM (inactive).

**Q.** What about the GI50 (DMS-273) of the same compound?
**A.** The GI50 was > 100 µM (inactive).

**Q.** What about the GI50 (KM-20L2) of the same compound?
**A.** Its GI50 is > 100 µM (inactive).

**Q.** What about the GI50 (LXFL 529) of the same compound?
**A.** The GI50 was > 100 µM (inactive).

**Q.** What about the GI50 (XF498) of the same compound?
**A.** Its GI50 is > 100 µM (inactive).

**Q.** With `COc1cccc(CSCC(=O)O)c1` as the compound, how does the GI50 (Hs-578T) read?
**A.** Its GI50 is > 100 µM (inactive).

**Q.** Which GI50 (Hs-578T) does the source give for `COC(=NC(C)C)NC(C)C` here?
**A.** Its GI50 is > 100 µM (inactive).

**Q.** How did the GI50 (Hs-578T) turn out when `O=c1ssc2ncccc12` was run?
**A.** Its GI50 is 46.3 µM (inactive).

**Q.** What does the source list for `COC(=O)[C@@]12OC[C@]34C([C@@H](O)C1O)[C@@]1(C)CC(=O)C(OC(=O)CC(C)C(F)(F)F)=C(C)C1C[C@H]3OC(=O)[C@H](O)[C@H]42` (stereo partly specified)?
**A.** GI50 (SNB-78): 29.2 µM (inactive); GI50 (HOP-18): 1.99 µM (inactive); GI50 (DMS-114): 1.44 µM (inactive); GI50 (DMS-273): 0.379 µM (active); GI50 (KM-20L2): 3.8 µM (inactive); GI50 (LXFL 529): 3.81 µM (inactive); GI50 (XF498): 0.13 µM (active)

**Q.** With `CNC(=O)OCC1=C(COC(=O)NC)CN(c2ccccc2)C1` as the compound, how does the GI50 (Hs-578T) read?
**A.** Its GI50 is > 100 µM (inactive).

**Q.** How did the GI50 (Hs-578T) turn out when `CCOC(=O)c1nc2cc(C(F)(F)F)ccc2nc1Nc1ccc(OC)cc1` was run?
**A.** Its GI50 is 54.1 µM (inactive).

**Q.** With `COc1ccc(COCC[C@H](C)OC2OC(CO[Si](C)(C)C(C)(C)C)C(OC(=O)CCCN=[N+]=[N-])C(OC(=O)CCCN=[N+]=[N-])C2OC(=O)CCCN=[N+]=[N-])cc1` (stereo partly specified) as the compound, how does the GI50 (Hs-578T) read?
**A.** The GI50 was > 100 µM (inactive).

**Q.** Which GI50 (Hs-578T) does the source give for `Cc1c2oc3c(C)ccc(C(=O)NC4C(=O)NC(C(C)C)C(=O)N5CCCC5C(=O)N(C)CC(=O)N(C)C(C(C)C)C(=O)OC4C)c3nc-2c(C(=O)NC2C(=O)NC(C(C)C)C(=O)N3CCCC3C(=O)N(C)CC(=O)N(C)C(C(C)C)C(=O)OC2C)c(N)c1=O` (stereo unspecified) (I: TVP[Sar][NMeV] / II: TVP[Sar][NMeV]; ester I:1-I:C, II:1-II:C; linker I:N-II:N via Actinocin(9to1); configuration not given here) here?
**A.** The GI50 was 0.000143 µM (active).

**Q.** `OCC(O)COCn1cc(Cn2ncc3c(NCc4ccccc4)ncnc32)nn1` (stereo unspecified) was tested. Which GI50 (Hs-578T) did it give?
**A.** The GI50 was 25 µM (inactive).

**Q.** For `CC1=NN(C(=O)c2ccccc2O)C(=O)/C1=C/c1cccc(O)c1`, which GI50 (SNB-78) is on record?
**A.** The GI50 was 0.276 µM (active).

**Q.** What about the GI50 (KM-20L2) of the same compound?
**A.** Its GI50 is 25.5 µM (inactive).

**Q.** And the GI50 (LXFL 529)?
**A.** Its GI50 is 0.276 µM (active).

**Q.** And the GI50 (XF498)?
**A.** Its GI50 is 0.783 µM (active).

**Q.** How did the GI50 (SNB-78) turn out when `CC1C(c2ccccc2)N(C)C(c2ccccc2)C(C)C1(O)c1ccccc1` (stereo unspecified) was run?
**A.** Its GI50 is > 100 µM (inactive).

**Q.** And the GI50 (DMS-114)?
**A.** The GI50 was > 100 µM (inactive).

**Q.** What about the GI50 (DMS-273) of the same compound?
**A.** Its GI50 is 40.7 µM (inactive).

**Q.** And the GI50 (KM-20L2)?
**A.** The GI50 was > 100 µM (inactive).

**Q.** And the GI50 (LXFL 529)?
**A.** The GI50 was > 100 µM (inactive).

**Q.** For `COc1ccc(/C=C2\CCCc3ccccc3C2=O)cc1`, which GI50 (Hs-578T) is on record?
**A.** Its GI50 is 0.233 µM (active).

**Q.** Which results are given for `O=C(c1nc2ccc(Cl)cc2[nH]c1=O)C(O)c1cccc([N+](=O)[O-])c1` (stereo unspecified)?
**A.** GI50 (SNB-78): > 100 µM (inactive); GI50 (HOP-18): > 100 µM (inactive); GI50 (DMS-114): 5.98 µM (inactive); GI50 (DMS-273): > 100 µM (inactive); GI50 (KM-20L2): > 100 µM (inactive); GI50 (LXFL 529): > 100 µM (inactive); GI50 (XF498): 9.1 µM (inactive)

**Q.** `C/C=C1/CN2CCC34c5ccccc5N(C)C23C2CC1C4(C(=O)OC)C(OC(C)=O)O2` (stereo unspecified) was tested. Which GI50 (Hs-578T) did it give?
**A.** Its GI50 is > 100 µM (inactive).

**Q.** Which results are given for `O=C(Nc1cc(Cl)ccc1Cl)c1cc2cccc(Cl)c2oc1=O`?
**A.** GI50 (HOP-18): 40.2 µM (inactive); GI50 (DMS-114): > 100 µM (inactive); GI50 (DMS-273): > 100 µM (inactive); GI50 (KM-20L2): > 100 µM (inactive); GI50 (XF498): 24 µM (inactive)

**Q.** `O=[N+]([O-])c1ccccc1S(=O)(=O)c1cc(O)cc2c1NCCC2` was tested. Which GI50 (Hs-578T) did it give?
**A.** The GI50 was 27.4 µM (inactive).

**Q.** Which results are given for `O=C(O)C(CO)NC(=O)n1c2ccccc2c2ccccc21` (stereo unspecified)?
**A.** GI50 (HOP-18): > 100 µM (inactive); GI50 (DMS-114): > 100 µM (inactive); GI50 (DMS-273): > 100 µM (inactive); GI50 (LXFL 529): > 100 µM (inactive); GI50 (XF498): > 100 µM (inactive)

**Q.** How did the GI50 (Hs-578T) turn out when `O=C1c2ccccc2-c2c1c1ccccc1c(=O)n2-c1cccnc1` was run?
**A.** The GI50 was 37 µM (inactive).

**Q.** `c1ccc(C2=NCCc3cc4c(cc32)OCO4)cc1` was tested. Which GI50 (Hs-578T) did it give?
**A.** The GI50 was > 100 µM (inactive).

**Q.** For `Cc1c2oc3c(C)cnc(C(=O)NC4C(=O)NC(C(C)C)C(=O)N5CCCC5C(=O)N(C)CC(=O)N(C)C(C(C)C)C(=O)OC4C)c3nc-2c(C(=O)NC2C(=O)NC(C(C)C)C(=O)N3CCCC3C(=O)N(C)CC(=O)N(C)C(C(C)C)C(=O)OC2C)c(N)c1=O` (stereo unspecified), which GI50 (Hs-578T) is on record?
**A.** The GI50 was 1.88 µM (inactive).

**Q.** Which GI50 (Hs-578T) does the source give for `COc1ccc(/C=C2\C[C@H]3[C@@H]4CCC5=C/C(=N/O)CC[C@]5(C)[C@H]4CC[C@]3(C)\C2=N\O)cc1` here?
**A.** Its GI50 is 28.5 µM (inactive).

**Q.** Which GI50 (HOP-18) does the source give for `CCC(C)C1NC(=O)C2CCCN2C(=O)CNC(=O)C(C)NC(=O)C(Cc2ccccc2)NC(=O)C(C(C)C)NC1=O` (stereo unspecified) (cyclo(GPIVFA); configuration not given here) here?
**A.** Its GI50 is > 100 µM (inactive).

**Q.** And the GI50 (DMS-114)?
**A.** The GI50 was > 100 µM (inactive).

**Q.** What about the GI50 (KM-20L2) of the same compound?
**A.** The GI50 was > 100 µM (inactive).

**Q.** And the GI50 (LXFL 529)?
**A.** Its GI50 is > 100 µM (inactive).

**Q.** What about the GI50 (RXF 631) of the same compound?
**A.** Its GI50 is > 100 µM (inactive).

**Q.** For `COc1ccc(Cc2c(N)[nH]c(=O)[nH]c2=O)cc1`, which GI50 (Hs-578T) is on record?
**A.** The GI50 was > 100 µM (inactive).

**Q.** What does the source list for `CCc1cccc(C)c1NC(C)=O`?
**A.** GI50 (SNB-78): > 100 µM (inactive); GI50 (DMS-114): > 100 µM (inactive); GI50 (DMS-273): > 100 µM (inactive); GI50 (KM-20L2): > 100 µM (inactive); GI50 (LXFL 529): > 100 µM (inactive); GI50 (XF498): > 100 µM (inactive); GI50 (RXF 631): > 100 µM (inactive)

**Q.** With `COc1ccc2c(-c3ccc(OCCN(C)C)cc3)c(Oc3ccc(Cl)cc3)c(=O)oc2c1` as the compound, how does the GI50 (Hs-578T) read?
**A.** The GI50 was 6.01 µM (inactive).

**Q.** With `CN(C)CCOc1ccc2[nH]c(C(=O)N3CC(CCl)c4c3cc(NC(=O)OCc3ccc([N+](=O)[O-])cc3)c3ccccc43)cc2c1` (stereo unspecified) as the compound, how does the GI50 (Hs-578T) read?
**A.** Its GI50 is 2.3 µM (inactive).

**Q.** For `CC(NC(=O)OC(C)(C)C)C(=O)NC(Cc1ccccc1)C(=O)NCC(=O)O` (stereo not drawn) (Boc-Ala-Phe-Gly-OH; configuration not given here), which GI50 (Hs-578T) is on record?
**A.** The GI50 was > 100 µM (inactive).

**Q.** For `CCCC#CCOC(=O)c1cc([N+](=O)[O-])cc([N+](=O)[O-])c1`, which GI50 (Hs-578T) is on record?
**A.** The GI50 was > 100 µM (inactive).

**Q.** How did the GI50 (Hs-578T) turn out when `O=C(c1cccs1)N(C(=O)N1CCN(c2ccccc2)CC1)S(=O)(=O)c1ccccc1` was run?
**A.** The GI50 was 23.8 µM (inactive).
